Test results reported in patent US20230365563A1, “QUINAZOLINE COMPOUND AND APPLICATION THEREOF” (SHANGHAI PHARMACEUTICALS HOLDING CO., LTD., priority 2020, published 2023).
Where a name gives a salt, the structure may show the parent alone.

Assays:
KRAS-G12D and SOS1 = target: T1, KRAS-G12D and SOS1 (Homo sapiens, UniProt P01116, G12D); test: Inhibition of KRAS-G12D/SOS1 binding (Cisbio binding kit, 665/615 ratio), Effect Embodiment A; details: read-out: GTP-KRAS-G12D:SOS1 IC50
T1 construct: purchased
Outline: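 Test compounds were serially diluted 3-fold from the storage solution over 11 points and dispensed in duplicate wells at 1% final DMSO.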

KRAS_G12D and cRAF = target: T2, KRAS_G12D and cRAF (Homo sapiens, UniProt P01116, G12D); test: Inhibition of KRAS_G12D/cRAF binding (Cisbio binding kit, 665/615 ratio), Effect Embodiment B; details: read-out: GTP-KRAS-G12D:CRAF IC50
T2 construct: purchased
Procedure: Similarly, the first dilution point of the compound to be tested was its storage solution, and the solution was 3-fold diluted, with 11+0 points of dilution. Echo was used to transfer 0.2 μL gradient diluted solution of the compounds into a 384-well plate, with 2 duplicated wells for each compound, and the final concentration of DMSO was 1%. The solution was centrifuged for 1 min at 1000 rpm/min.
IC50 of the compounds was fitted by Graphpad Prism 8 nonlinear regression equation: […]
The IC50 (half inhibitory concentration) of the compound was obtained by using the following nonlinear fitting formula: […]

T1 sequence (P01116 1-188 isoform P01116-2 G12D): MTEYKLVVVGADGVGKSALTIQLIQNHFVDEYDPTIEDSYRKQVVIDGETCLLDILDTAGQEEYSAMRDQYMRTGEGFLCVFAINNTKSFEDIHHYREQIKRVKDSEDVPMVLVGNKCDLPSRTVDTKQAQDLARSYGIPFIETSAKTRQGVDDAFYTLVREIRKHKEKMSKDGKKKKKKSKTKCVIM
T2 sequence (P01116 1-188 isoform P01116-2 G12D): as above

Structure (SMILES) | IC50 (KRAS-G12D and SOS1) | IC50 (KRAS_G12D and cRAF)
CC(F)(COc1nc(N2CC3CCC(C2)N3)c2cc(Cl)c(-c3cc(O)cc4ccccc34)c(F)c2n1)CN1C2CCC1COC2 (single isomer, unassigned) [Compound 208a, ((4S or 4R)-4-(2-((2(R or S)-3-(3-oxa-8-azabicyclo[3.2.1]octan-8-yl)-2-fluoro-2-methylpropoxy)-4-((1R,5S)-3,8-diazabicyclo[3.2.1]octan-3-yl)-6-chloro-8-fluoroquinazolin-7-yl)naphthalen-2-ol formate] | 42.5 nM | 109 nM
C[C@@H](COc1nc(N2CC3CCC(C2)N3)c2cc(Cl)c(-c3cc(O)cc4ccccc34)c(F)c2n1)CN1C[C@H](C)O[C@@H](C)C1 (single isomer, unassigned) [Compound 220, 4-((S or R)-4-((1R,5S)-3,8-diazabicyclo[3.2.1]octan-3-yl)-6-chloro-2-((R)-3-((2S,6S)-2,6-dimethylmorpholinyl)-2-methylpropoxy)-8-fluoroquinazolin-7-yl)naphthalen-2-ol formate] | 19.3 nM | 29.6 nM
CO[C@H](COc1nc(N2CC3CCC(C2)N3)c2cc(Cl)c(-c3cc(O)cc4ccccc34)c(F)c2n1)CN1C2CCC1COC2 (single isomer, unassigned) [Compound 184, (4R or S)-4-(2-((2S)-3-(3-oxa-8-azabicyclo[3.2.1]octan-8-yl)-2-methoxypropoxy)-4-((1R,5S)-3,8-diazabicyclo[3.2.1]octan-3-yl)-6-chloro-8-fluoroquinazolin-7-yl)naphthalen-2-ol diformate] | 113 nM | 461 nM
CN1CCC[C@H]1COc1nc(N2CCN(C(=O)CCN)[C@@H](CC#N)C2)c2cc(Cl)c(-c3cc(O)cc4ccccc34)c(F)c2n1 (single isomer, unassigned) [Compound 157, 2-((S)-1-(3-aminopropionyl)-4-((S or R)-6-chloro-8-fluoro-7-(3-hydroxynaphthalen-1-yl)-2-((S)-1-methylpyrrolidine-2-yl)methoxy)quinazolin-4-yl)-piperazin-2-yl)acetonitrile ditrifluoroacetate] | 316 nM | –
Cc1ccc2[nH]ncc2c1-c1c(Cl)cc2c(N3CC4CCC(C3)N4)nc(OC[C@@H]3CCCN3C)nc2c1F (single isomer, unassigned) [Compound 90a, 4-((1R,5S)-3,8-diazabicyclo[3.2.1]octan-3-yl)-6-chloro-8-fluoro-7-((R or S)-5-methyl-1H-indazol-4-yl)-2-((S)-1-methylpyrrolidin-2-yl)methoxy)quinazoline hydrochloride] | 263 nM | –
C#Cc1c(F)ccc2cccc(-c3c(F)cc4c(N5CC6CCC(C5)N6)nc(OC[C@@]56CCCN5C[C@H](F)C6)nc4c3F)c12 (single isomer, unassigned) [Compound 279b, (R or S)-4-((1R,5S)-3,8-diazacyclo[3.2.1]octyl-3-yl)-7-(8-ethynyl-7-fluoronaphthalen-1-yl)-6,8-difluoro-2-((2R,7aS)-2-fluorotetrahydro-1H-pyrrolidin-7a(5H)-yl)methoxy)quinazoline formate] | 1390 nM | –
CN1CCC[C@H]1COc1nc(N2CC3CCC(C2)N3C(=O)CN)c2cc(Cl)c(-c3cc(O)cc4ccccc34)c(F)c2n1 (single isomer, unassigned) [Compound 156, 2-Amino-1-((1R,5S)-3-((S or R)-6-chloro-8-fluoro-7-(3-hydroxynaphthalen-1-yl)-2-((S)-1-methylpyrrolidin-2-yl)methoxy)quinazin-4-yl)-3,8-diazacyclo[3.2.1]octan-8-yl)ethan-1-one dihydrochloride] | 621 nM | –
Oc1cc(-c2c(Cl)cc3c(N4CC5CCC(C4)N5)nc(OCCCN4CCOCC4)nc3c2F)c2ccccc2c1 (single isomer, unassigned) [Compound 54b, 4-((R or S)-4-((1R,5S)-3,8-diazabicyclo[3.2.1]octan-3-yl)-6-chloro-8-fluoro-2-(3-morpholinopropoxy)quinazolin-7-yl)naphthalen-2-ol dihydrochloride] | 22100 nM | –
CCN(CC)CCCOc1nc(N2CC3CCC(C2)N3)c2cc(Cl)c(-c3cc(O)cc4ccccc34)c(F)c2n1 (single isomer, unassigned) [Compound 53b, 4-((R or S)-4-((1R,5,S)-3,8-diazabicyclo[3.2.1]octan-3-yl)-6-chloro-2-(3-(diethylamino)propoxy)-8-fluoroquinazolin-7-yl)naphthalen-2-ol] | 2290 nM | –
CN(C)C1CN(c2nc(N3CC4CCC(C3)N4C(=N)N)c3cc(Cl)c(-c4cc(O)cc5ccccc45)c(F)c3n2)C1 (single isomer, unassigned) [Compound 85, (1R,5S)-3-((S or R)-6-chloro-2-(3-(dimethylamino)azetidin-1-yl)-8-fluoro-7-(3-hydroxynaphthalen-1-yl)quinazolin-4-yl)-3,8-diazabicyclo[3.2.1]octane-8-carboximidamide diformate] | 4790 nM | –
CC(C)(CCOc1nc(N2CC3CCC(C2)N3)c2cc(Cl)c(-c3cc(O)cc4ccccc34)c(F)c2n1)N1CCCC1 (single isomer, unassigned) [Compound 123, 4-((S or R)-4-((1R,5S)-3,8-diazabicyclo[3.2.1]octan-3-yl)-6-chloro-8-fluoro-2-(3-methyl-3-(pyrrolidin-1-yl)butoxy)quinazolin-7-yl)naphthalen-2-ol dihydrochloride] | 106 nM | –
CN(C)C1CN(c2nc(N3CC4CCC(C3)N4C)c3cc(Cl)c(-c4cc(O)cc5ccccc45)c(F)c3n2)C1 (single isomer, unassigned) [Compound 86, 4-((S or R)-6-chloro-2-(3-(dimethylamino)azetidin-1-yl)-8-fluoro-4-((1R,5S)-8-methyl)-3,8-diazabicyclo[3.2.1]octan-3-yl)quinazolin-7-yl)naphthalen-2-ol] | 3570 nM | –
CN(C)C1CN(c2nc(N3CC(C(=N)N)C3)c3cc(Cl)c(-c4cc(O)cc5ccccc45)c(F)c3n2)C1 [Compound 77, (S)-1-(6-chloro-2-(3-(dimethylamino)azetidin-1-yl)-8-fluoro-7-(3-hydroxynaphthalen-1-yl)quinazolin-4-yl)azetidine-3-carboximidamide] | 1040 nM | –
CN1CCC[C@H]1COc1nc(N2C3CCC2C2CCC3N2)c2cc(Cl)c(-c3cc(O)cc4ccccc34)c(F)c2n1 (single isomer, unassigned) [Compound 152a, 4-((S or R)-6-chloro-8-fluoro-2-((S)-1-methylpyrrolidin-2-yl)methoxy)-4-((1R,2R,5S,6S)-9,10-diazatricyclo[4.2.1.1^2,5]decan-9-yl)quinazolin-7-yl)naphthalen-2-ol dihydrochloride] | 1050 nM | –
CN(C)C1CN(c2nc(N3CC4(CCNCC4)C3)c3cc(Cl)c(-c4cc(O)cc5ccccc45)c(F)c3n2)C1 (single isomer, unassigned) [Compound 10b, (S or R)-4-(6-chloro-2-(3-(dimethylamino)azetidin-1-yl)-8-fluoro-4-(2,7-diazaspiro[3.5 5]nonan-2-yl)quinazolin-7-yl)naphthalen-2-ol] | 65100 nM | –
CN(C)C1CN(c2nc(N3C[C@H]4CC[C@@H](C3)[C@@H]4N)c3cc(Cl)c(-c4cc(O)cc5ccccc45)c(F)c3n2)C1 (single isomer, unassigned) [Compound 30, (S or R)-4-(4-((1R,5S,8S)-8-amino-3-azabicyclo[3.2.1]octan-3-yl)-6-chloro-2-(3-(dimethylamino)azetidin-1-yl)-8-fluoroquinazolin-7-yl)naphthalen-2-ol] | 1230 nM | –
CN(C)CCN(C)c1nc(N2CC(N(C)C)C2)nc2c(F)c(-c3cc(O)cc4ccccc34)c(Cl)cc12 (single isomer, unassigned) [Compound 17a, (R or S)-4-(6-chloro-2-(3-(dimethylamino)azetidin-1-yl)-4-((2-(dimethylamino)ethyl)(methyl)amino)-8-fluoro-quinazolin-7-yl)naphthalen-2-ol] | 5810 nM | –
CN(C)C1CN(c2nc(N=S3(=O)CCC(N)CC3)c3cc(Cl)c(-c4cc(O)cc5ccccc45)c(F)c3n2)C1 (single isomer, unassigned) [Compound 72c, (4S or R)-4-amino-1-(((R or S)-6-chloro-2-(3-(dimethylamino)azetidin-1-yl)-8-fluoro-7-(3-hydroxynaphthalen-1-yl)quinazolin-4-yl)imino)hexahydro-1-thiopyran 1-oxide] | > 200000 nM | –
CN(C)C1CN(c2nc(C3(C(N)=O)CN(C(=N)N)C3)c3cc(Cl)c(-c4cc(O)cc5ccccc45)c(F)c3n2)C1 (single isomer, unassigned) [Compound 145, (R or S)-1-Carbamimidoyl-3-(6-chloro-2-(3-(dimethylamino)azetidin-1-yl)-8-fluoro-7-(3-hydroxynaphthalen-1-yl)quinazolin-4-yl)azetidin-3-carboxamide ditrifluoroacetate] | 5940 nM | –
CC(=N)N1C2CCC1CN(c1nc(N3CC(N(C)C)C3)nc3c(F)c(-c4cc(O)cc5ccccc45)c(Cl)cc13)C2 (single isomer, unassigned) [Compound 87, 4-((S or R)-6-chloro-2-(3-(dimethylamino)azetidin-1-yl)-8-fluoro-4-((1R,5S)-8-(1-iminoethyl)-3,8-diazabicyclo[3.2.1]octan-3-yl)quinazolin-7-yl)naphthalen-2-ol trifluoroacetate] | 23300 nM | –
Oc1cc(-c2ncc3c(N4C[C@H]5CC[C@@H](C4)N5)nc(OCCc4ccccn4)nc3c2F)c2ccccc2c1 [Compound 138, 4-(4-((1R,5S)-3,8-diazabicyclo[3.2.1]octan-3-yl)-8-fluoro-2-(2-(pyridin-2-yl)ethoxy)pyridyl[4,3-d]pyrimidin-7-yl)naphthalen-2-ol trifluoroacetate] | 108 nM | –
